Read-outs that look alike come from different tables or passages of the source. Blank lines part the entries; values can stand above or below the compound they belong to.
Experiments:
[1] = Hygroscopicity experiment (dynamic moisture adsorption, DVS); format: physicochemical; settings: for The hygroscopicity feature: Chinese Pharmacopoeia 2020 definition, 25°C±1°C, 80%±2% relative humidity; for Weight gain at 60% relative humidity/% / Weight gain at 80% relative humidity/% / Weight gain at 95% relative humidity/%: DVS, 25°C
Description: The hygroscopicity of the present invention was measured by a DVS INT-Std dynamic moisture and gas adsorption analyzer from Surface Measurement Systems, UK. The humidity test range: 0%-95%, air flow: 200 mL/min, temperature: 25° C., test point: every 5% increase in humidity to take a test point.
Test samples: crystalline form I prepared by referring to any method of Example 2, and amorphous form prepared by referring to Example 1.
An appropriate amount of the test sample was taken, and the hygroscopicity was tested by a dynamic moisture adsorption device. The description of the hygroscopicity feature and the definition of the hygroscopicity gain (Chinese Pharmacopoeia 2020 edition. Appendix 9103 Guidelines for drug dampness test, experimental, conditions: 25° C.±1° C. 80%±2% relative humidity) as described in Table 6 below: […]

[2] = Stability experiment: high temperature test; format: physicochemical; settings: for Appearance / Total impurity %: 60°C±2°C; for Total impurity %: HPLC
Description: (§1) Test samples: crystalline form I was prepared by referring to any method of Example 2, and amorphous form was prepared by referring to Example 1.
The following tests of test samples were carried out: • (1) High temperature test: an appropriate amount of the test sample was taken into a flat weighing bottle, spread into a thin layer with a thickness of ≤5 mm. The samples were placed at 60° C.±2° C. for 30 days. The samples were taken for testing according to the key stability inspection items on the 5th, 10th, and 30th day. The color change of the samples was observed. The purity of the samples was determined by HPLC.

[3] = Stability experiment: light test; format: physicochemical; settings: for Appearance / Total impurity %: 25°C, white light 4990 lux; for Total impurity %: HPLC
Description: as §1
• (3) Light test: an appropriate amount of the test sample was taken into a flat weighing bottle, spread into a thin layer with a thickness of ≤5 mm. The samples were placed in a light box (with a UV lamp) and placed under the conditions of 25° C., white light 4990 lux, and UV 1.4 W·h/m^2 for 30 days. The samples were taken for testing on the 5th, 10th, and 30th day. The color change of the samples was observed. The purity of the samples was determined by HPLC.

[4] = Pharmacokinetic experiment, oral capsule in Beagle dogs; format: in vivo; settings: 5 mg/kg; for AUClast / Cmax / Tmax: male Beagle dogs
Description: The crystalline form I prepared by referring to any method of Example 2 was filled into capsules, which are used for oral administration.
8-12 kg Male Beagle dogs were divided into 2 groups, and 3 in each group. Each Beagle dog was orally administered the capsule containing the test sample at a dose of 5 mg/kg, and blood was collected at time points of 0.25, 0.5, 1.0, 2.0, 4.0, 6.0, 8.0 and 24 hours. Standard curve was plotted based on concentrations of the samples in a suitable range, the concentration of the test sample in the plasma sample was measured and quantified by AB SCIEX API4000 LC-MS/MS at MRM mode. Pharmacokinetic parameters were calculated according to drug concentration-time curve using a noncompartmental method by WinNonLin 6.3 software.
A pharmacokinetic experiment of the amorphous form prepared with reference to Example 1 was carried out according to the above method, and the results are shown in Table 1.

[5] = Stability experiment: high humidity test; format: physicochemical; settings: for Appearance / Total impurity %: 25°C, RH 90%±5%; for Total impurity %: HPLC
Description: as §1
• (2) High humidity test: an appropriate amount of the test sample was taken into a flat weighing bottle, spread into a thin layer with a thickness of ≤5 mm. The samples were placed at 25° C. and RH for 90%±5% for 30 days. The samples were taken for testing according to the key stability inspection items on the 5th, 10th, and 30th day. The color change of the samples was observed. The purity of the samples was determined by HPLC.

[6] = Stability experiment: accelerated test; format: physicochemical; settings: for Total impurity % / Appearance: 40±2°C/75%±5% RH; for Total impurity %: HPLC; for Appearance: PE package plus aluminum foil
Description: as §1
• (4) Accelerated test: an appropriate amount of crystalline form I test samples in a single-layer PE package plus aluminum foil packaging was stored for 6 months under the conditions of 40±2° C./75%±5% RH. Samples were taken for testing in the 1st, 2nd, 3rd and 6th month. The color change of the samples was observed. The purity of the samples was determined by HPLC.

The hygroscopicity feature [1]: slight hygroscopicity
Weight gain at 60% relative humidity/% [1]: 1.401%
Weight gain at 80% relative humidity/% [1]: 1.826%
Weight gain at 95% relative humidity/% [1]: 2.707%
Appearance ([2]; 0 day): Off-white
Total impurity % ([2]; 0 day): 0.40%
Appearance ([2]; 5 days): Off-white
Total impurity % ([2]; 5 days): 0.46%
Appearance ([2]; 10 days): Off-white
Total impurity % ([2]; 10 days): 0.55%
Appearance ([2]; 30 days): Off-white
Total impurity % ([2]; 30 days): 1.28%
Appearance ([3]; UV 1.4 W·h/m^2, 0 day): Off-white
Total impurity % ([3]; UV 1.4 W·h/m^2, 0 day): 0.40%
Total impurity % ([3]; UV 1.4 W·h/m^2, 5 days): 0.85%
Total impurity % ([3]; UV 1.4 W·h/m^2, 10 days): 1.79%
Total impurity % ([3]; UV 1.4 W·h/m^2, 30 days): 3.47%
AUClast [4]: 20900 ng·h/mL
Cmax [4]: 913 ng/mL
Tmax [4]: 3.33 h
Appearance ([5]; 0 day): Off-white
Total impurity % ([5]; 0 day): 0.40%
Appearance ([5]; 5 days): Off-white
Total impurity % ([5]; 5 days): 0.47%
Appearance ([5]; 10 days): Off-white
Total impurity % ([5]; 10 days): 0.53%
Appearance ([5]; 30 days): Off-white
Total impurity % ([5]; 30 days): 0.57%
Compound: Cc1c(C(=O)Nc2ccc(S(C)(=O)=O)c(F)c2)cn(CCO)c1-c1ccccc1C(F)(F)F [Amorphous form, (S)-1-(2-hydroxyethyl)-4-methyl-N-(3-fluoro-4-(methylsulfonyl)phenyl)-5-(2-(trifluoromethyl)phenyl)-1H-pyrrole-3-carboxamide]

The hygroscopicity feature [1]: no or almost no hygroscopicity
Weight gain at 60% relative humidity/% [1]: 0.120%
Weight gain at 80% relative humidity/% [1]: 0.185%
Weight gain at 95% relative humidity/% [1]: 0.304%
Total impurity % ([6]; 0 day): 0.78%
Total impurity % ([6]; 1 month): 0.72%
Total impurity % ([6]; 2 months): 0.73%
Total impurity % ([6]; 3 months): 0.73%
Total impurity % ([6]; 6 months): 0.71%
Appearance ([6]; 0 day): White
Appearance ([6]; 1 month): White
Appearance ([6]; 2 months): White
Appearance ([6]; 3 months): White
Appearance ([6]; 6 months): White
change of appearance and purity ([6]; accelerated test conditions, 6 months): do not change significantly
Appearance ([2]; 0 day): White
Total impurity % ([2]; 0 day): 0.34%
Appearance ([2]; 5 days): White
Total impurity % ([2]; 5 days): 0.36%
Appearance ([2]; 10 days): White
Total impurity % ([2]; 10 days): 0.34%
Appearance ([2]; 30 days): White
Total impurity % ([2]; 30 days): 0.34%
change of appearance and purity ([2]; high temperature (60°C), 30 days): no obvious changes
Appearance ([3]; UV 1.4 W·h/m^2, 0 day): White
Total impurity % ([3]; UV 1.4 W·h/m^2, 0 day): 0.34%
Appearance ([3]; UV 1.4 W·h/m^2, 5 days): White
Total impurity % ([3]; UV 1.4 W·h/m^2, 5 days): 0.34%
Appearance ([3]; UV 1.4 W·h/m^2, 10 days): White
Total impurity % ([3]; UV 1.4 W·h/m^2, 10 days): 0.32%
Appearance ([3]; UV 1.4 W·h/m^2, 30 days): White
Total impurity % ([3]; UV 1.4 W·h/m^2, 30 days): 0.49%
change of appearance and purity ([3]; light, 30 days): no obvious changes
AUClast [4]: 42300 ng·h/mL
Cmax ([4]; male, Beagle, dog, plasma, po, read-out: Cmax): 1450 ng/mL
Tmax ([4]; male, Beagle, dog, plasma, po, read-out: Tmax): 4 h
Appearance ([5]; 0 day): White
Total impurity % ([5]; 0 day): 0.34%
Appearance ([5]; 5 days): White
Total impurity % ([5]; 5 days): 0.35%
Appearance ([5]; 10 days): White
Total impurity % ([5]; 10 days): 0.36%
Appearance ([5]; 30 days): White
Total impurity % ([5]; 30 days): 0.34%
change of appearance and purity ([5]; high humidity (25°C, RH 90%±5%), 30 days): no obvious changes
Compound: Cc1c(C(=O)Nc2ccc(S(C)(=O)=O)c(F)c2)cn(CCO)c1-c1ccccc1C(F)(F)F [Crystalline form I, (S)-1-(2-hydroxyethyl)-4-methyl-N-(3-fluoro-4-(methylsulfonyl)phenyl)-5-(2-(trifluoromethyl)phenyl)-1H-pyrrole-3-carboxamide]
exposure and blood drug concentration compared with the amorphous form ([4]; Beagle dogs): higher exposure and blood drug concentration than the amorphous form

Reference: patent publication US20240376051A1, “CRYSTALLINE FORM OF PYRROLE AMIDE COMPOUND, PREPARATION METHOD THEREFOR AND USE THEREOF” (SUNSHINE LAKE PHARMA CO., LTD., priority 2021, published 2024)
